Source: patent US6177475A, “Methods of using integrin modulators for treatment of inflammation” (priority 1997, dated 2001)

Tests used:
VLA-4 (VCAM-1) = assay: Adhesion of TPA-activated Jurkat cells to SVT2/VCAM-1 monolayers; type: cell-based; settings: Homo sapiens, 0.75 h, SVT2/VCAM-1, TPA 125 ng/ml, 45 min
Description: SVT2 cells transfected with human ICAM-1 or VCAM-1 (SVT2/ICAM-1 and […], respectively) were plated into 96-well plates and cultured overnight. […] The labeled Jurkat cells were washed three times and resuspended at a density of 4×10^6 cells/ml in complete RPMI medium. Serial dilutions of Ajoene were prepared in complete RPMI medium. Aliquots of the cells (0.5 ml) were then mixed with an equal volume of Ajoene dilutions (1:1 v/v), and the mixtures incubated at 37° C. for 30 min. Thereafter, Ajoene-incubated cells were added in duplicate to SVT2/ICAM-1 and SVT2/VCAM-1 monolayers, and TPA was introduced into each well to the final concentration of 125 ng/ml. The plates were incubated at 37° C. for 45 min, after which the non-adherent cells were removed by washing with warm complete RPMI medium. The bound labeled cells were lysed by adding 1% Triton X-100 solution in 0.1 N HCl. The lysates were assayed in a gamma counter to determine the percentage of bound cells. […] Thus, coculturing of Jurkat cells with SVT2/ICAM-1 and SVT2/VCAM-1 cells makes it possible to assess, respectively, the function of IFA-1 and VLA-4 under identical conditions. In the absence of TPA, 10 and 20% of the added Jurkat cells adhered to SVT2/ICAM-1 and SVT2/VCAM-1 cells, respectively. […]

[1] = test system: MOLT-4 cells / syncytiotrophoblasts; assay: Adhesion of uninfected MOLT-4 clone 8 cells to syncytiotrophoblasts; type: cell-based, human
From the text: Human fetal placental epithelial cells, known as syncytiotrophoblasts, were organized in a monolayer and exposed to HIV-infected lymphocytic cells and, as a negative control, to uninfected cells of the same type. This experimental system, closely simulating the actual conditions under which syncytiotrophoblasts would be exposed to HIV-infected cells in vivo, was used to assess integrin-modulating effects of Ajoene.
MOLT-4 clone 8 cells were labeled with calcein-AM, pretreated with different concentrations of Ajoene (0-200 micromoles per liter) and incubated with cultured term syncytiotrophoblast cells at 37° C. for one hour in the presence of Ajoene. Adhesion was measured directly as fluorescence units after background correction. Controls included measuring adhesion in the presence of the appropriate carrier solvent.

[2] = test system: human sperm / zona-free hamster oocytes; assay: Hamster oocyte penetration assay with capacitated human sperm; type: cell-based; settings: 200 micromoles per l; 30 min pretreatment of sperm and oocytes
Description: The activity of Ajoene in the hamster oocyte penetration assay was tested. This assay is routinely used to test the ability of capacitated human sperm to penetrate oocytes.
To obtain oocytes, mature hamsters (on day 1 of the estrous cycle) were injected intraperitoneally with 40 International Units (IU) pregnant mare serum gonadotropin (PMSG), followed by 40 IU human chorionic gonadotropin (HCG) 55 hours late. After 16 hours, the animals were sacrificed by intracardiac injection of 0.1 ml T61 (euthanizing agent), the oviducts were removed, and the cumulus mass was collected. Cumulus cells were removed by hyaluronidase treatment, and the freed oocytes were transferred into a watchglass containing 3 ml Biggers-Whitter-Whittingham (BWW) medium supplemented with human serum albumin (HSA) (BWW/HSA; pH 7.5). […]
Human sperm was from a donor with known fertility (No. 113). […] A small portion of the original sample was analyzed (computer-assisted sperm analysis) using the Cell-Soft package. […] The swim-up was collected (about 0.5 ml), the cells were counted (Makler chamber), and their motility determined (%). […] Thereafter, motility and cell density were determined once again, and the sample was divided into three equal portions, each to be subjected to appropriate treatment. […]

51Cr-labeled monocytes = assay: Monocyte recruitment to inflamed skin; type: in vivo, rat; settings: 50 mg/kg i.v.; for Accumulation of 51Cr-labeled Monocytes (mean ± SEM): 2 h
From the text: Chemotactic factors (e.g., C5adesArg) and cytokines, such as tumor necrosis factor α (TNF) or interferon gamma (IFN), induce rapid cutaneous inflammatory reactions, when injected intradermally. These inflammatory reactions are characterized by integrin-mediated migration of ^51 Cr-labeled monocytes and ^111 In-labeled neutrophils. The mechanisms of leukocyte recruitment to the inflammatory loci differ, however, in that chemotactic factors act primarily on leukocytes (by upregulating integrins), whereas TNF and IFN activate endothelial cells (which results, inter alia, in rapid expression of integrin ligands, such as ICAM-1 and VCAM-1).
Agents used for the induction of the inflammation included rat IFN, recombinant mouse TNF (Genentech, South San Francisco, Calif.), and Zymozan-activated serum (ZAS). ZAS, a source of C5adesArg, was generated by activating complement in normal rat serum with 5 mg/ml of Zymozan A (Sigma Chemical Company, St. Louis, Mo.) at 37° C. for 60 min, after which the zymozan was removed.
Rat monocytes and neutrophils were isolated and labeled as described in Example 6, supra. Male Lewis rats were administered intravenously with 50 mg/kg Ajoene (treatment group) or its vehicle (control), followed within 2-3 min by infusion of the labeled cells. Immediately afterwards, the skin on the back of all animals was shaved and the inflammatory stimuli and the diluent control were injected intradermally at several sites of the skin of each animal. Two hours later, 1 ml of blood was taken from each rat, and the animals were sacrificed. The dorsal skin, including the area of dermal inflammatory reactions, was removed and frozen, and the injected skin sites were punched out with a 12-mm punch and counted in a gamma spectrometer (model 1280, LXB Instruments).

C=CCSSC=CC[S+]([O-])CC=C (stereo not shown) [Ajoene, 4,5,9-trithiadodeca-1,6,11-triene-9-oxide]
IC50 (VLA-4 (VCAM-1)): ~20 µM | inhibition of adhesion of MOLT-4 cells to syncytiotrophoblasts ([1]; 200 micromoles per liter): 100% | IC50 ([1]; Homo sapiens, MOLT-4, 1 hour, 37° C., cells not infected with HIV): 60 µM | Penetration (penetrated oocytes / total oocytes) [2]: 0% | Accumulation of 51Cr-labeled Monocytes (mean ± SEM) (51Cr-labeled monocytes; 10 ng TNF, P < 0.002): 1,274 cpm per inflammatory locus | inhibition of monocyte migration to loci of acute cutaneous inflammation (51Cr-labeled monocytes): 50-75% | Accumulation of 51Cr-labeled Monocytes (mean ± SEM) (51Cr-labeled monocytes; 25% ZAS, P < 0.020): 944 cpm per inflammatory locus | Accumulation of 51Cr-labeled Monocytes (mean ± SEM) (51Cr-labeled monocytes; 50% ZAS, P < 0.002): 1,268 cpm per inflammatory locus | Accumulation of 51Cr-labeled Monocytes (mean ± SEM) (51Cr-labeled monocytes; 300 U IFN, P < 0.001): 468 cpm per inflammatory locus | Accumulation of 51Cr-labeled Monocytes (mean ± SEM) (51Cr-labeled monocytes; diluent control stimulus, N.S.): 15 cpm per inflammatory locus
